Read-outs that look alike come from different tables or passages of the source.

For series [1], the system named is MB231 cells. The following applies: 24 hrs.
Description: MB231 cells were treated with 0.5 μM, 1.0 μM, and 2.0 μM azido-decylTPP and bis-TPP and incubated for 24 hrs. DMSO was added to control dishes to a final concentration of 0.1%. Following a 24 hr. incubation period, cells were plated at densities of 200, 400, 600, 800, and 2,000 cells per dish and incubated for 2 weeks. After incubation, cells were stained with Coomassie blue and counted under a light microscope. Survival fraction was calculated by dividing the number of colonies counted following treatment by the product of the number of cells plated and plating efficiency.
Series [2] deals with Hec50co human endometrial cancer cells. As to conditions: 2 uM, 24 hrs.
Description: Hec50co human endometrial cancer cells were treated with 0.5 μM, 1.0 and 2.0 μM azido-decylTPP and bis-TPP and incubated for 24 hrs. DMSO was added to control dishes to a final concentration of 0.1%. Following a 24 hr. incubation period, cells were plated at densities of 200, 400, 600, 800, 2,000, 5,000, and 10,000 cells per dish and incubated for 2 weeks. After incubation, cells were stained with Coomassie blue and counted under a light microscope. Survival fraction was calculated by dividing the number of colonies counted following treatment by the product of the number of cells plated and plating efficiency. Error bars represent uncertainties of N=2 experiments.
For series [3], the system named is A375 melanoma cells. The series is described as follows: MTT survival fraction analysis, A375. Type of series: cell-based.

With `[N-]=[N+]=NCCCCCCCCCC[P+](c1ccccc1)(c1ccccc1)c1ccccc1` [azido-DTPP, (10-azidodecyl)triphenylphosphonium], the values for the survival fraction in series [1] (0.5 uM), in series [1] (2 uM) and in series [2] were 55%, 10% and 24%, respectively.

As to `CCCCC[P+](c1ccccc1)(c1ccccc1)c1ccccc1` [pentyl-TPP], the “cytotoxicity in the absence of BSO, in words” value in series [3] is reported as “no effect”. Further, the survival fraction in series [3] (in the presence of BSO, 2 μM) is 70%. For the same compound, the “cytotoxicity in the presence of BSO, in words” value in series [3] (up to 2 μM) is listed as “little cytotoxicity”.

“decane-1,10-diylbis(triphenylphosphonium) [bis-DTPP]”: the survival fraction in series [1] (0.5 uM) was determined as 90%; in series [1] (2 uM) it was 82%; in series [2] it was 66%.

Source of the values: US9801922B2, “Compositions and methods of treating cancer” (UNIVERSITY OF IOWA RESEARCH FOUNDATION, priority 2011, dated 2017).
